Values after ≈ are worked out from the molar mass of the structure shown.

Experiment in all cases: microbe, parasite or virus in culture
Details in all cases: Mycobacterium tuberculosis, read-out: MIC95 (95% inhibition)

Assay [1] has as its system M. tuberculosis isolate VA1215.
The test system of assay [2] is M. tuberculosis isolate VA1345.
In assay [3] the test system is M. tuberculosis isolate UCSD14768J.

For `CCC1CCCCN1CCCNC(=O)c1ccc2c(c1)N(Cc1cccc(Cl)c1)C(=O)c1ccccc1[S+]2[O-]` (stereo not shown) [Compound 12], in assay [1], the MIC stood at 110 µM (≈ 62.1 µg/mL).
`O=C(NCCCN1CCCC1)c1ccc2c(c1)N(Cc1cccc(Cl)c1)C(=O)c1ccccc1[S+]2[O-]` (stereo not shown) [Compound 17]: the MIC in assay [2], in assay [3] and in assay [1] was 220 µM (≈ 115 µg/mL) each time.
On to `CN(CCCNC(=O)c1ccc2c(c1)N(Cc1cccc(Cl)c1)C(=O)c1ccccc1[S+]2[O-])C1CCCCC1` (stereo not shown) [Compound 2, N-[3-(cyclohexylmethylamino)propyl]-10-[(3-chlorophenyl)methyl]-10,11-dihydro-11-oxo-dibenzo-[b,f][1,4]-thiazepine-8-carboxamide-5-oxide], for which the MIC in assay [2], in assay [3] and in assay [1] was 110 µM (≈ 62.1 µg/mL) each time.
In the case of `O=C(NCCN1CCCCCC1)c1ccc2c(c1)N(Cc1cccc(Cl)c1)C(=O)c1ccccc1[S+]2[O-]` (stereo not shown) [Compound 20], the MIC in assay [2], in assay [3] and in assay [1] was 110 µM (≈ 59 µg/mL) in each case.
For `O=C(NCCCN1CCCC1)c1ccc2c(c1)N(Cc1cccc(Cl)c1)C(=O)c1ccccc1S2` [Compound 18], the MIC in assay [2], in assay [3] and in assay [1] was 110 µM (≈ 55.7 µg/mL) throughout.
